What was measured:
blackgrass = test: Test B pre/postemergence blackgrass; assay type: in vivo, Alopecurus myosuroides
Outline: (§1)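 Herbicidal effect was estimated by eye on a ten-point control scale after plants spent twelve to sixteen days in a greenhouse following soil or foliar treatment. Foliar sprays targeted plants at one to four leaves; all doses were formulated in a non-phytotoxic solvent with surfactant.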

wild oat = test: Test B pre/postemergence wild oat; assay type: in vivo, Avena fatua
Outline: as §1

morningglory = test: Test B pre/postemergence morningglory; assay type: in vivo, Ipomoea hederacea
Outline: as §1

sugar beet = test: Test B pre/postemergence sugar beet; assay type: in vivo, Beta vulgaris
Outline: as §1

pigweed = test: Test B pre/postemergence pigweed; assay type: in vivo, Amaranthus retroflexus
Outline: as §1

duck salad = test: Test B flood test duck salad; assay type: in vivo, Heteranthera limosa
Outline: (§2)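 Read-out is a visual response score from 0 (no effect) to 10 (complete control), assigned by comparison with untreated controls. Treatment was applied at the 2-leaf stage, and plants stayed in the greenhouse for twelve to sixteen days before scoring.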

bamyardgrass = test: Test B flood test barnyardgrass; assay type: in vivo, Echinochloa crus-galli
Outline: as §2

corn = test: Test B pre/postemergence corn; assay type: in vivo, Zea mays
Outline: as §1

cocklebur = test: Test B pre/postemergence cocklebur; assay type: in vivo, Xanthium strumarium
Outline: as §1

surinam grass = test: Test B pre/postemergence surinam grass; assay type: in vivo, Brachiaria decumbens
Outline: as §1

rape = test: Test B pre/postemergence rape; assay type: in vivo, Brassica napus
Outline: as §1

velvetleaf = test: Test B pre/postemergence velvetleaf; assay type: in vivo, Abutilon theophrasti
Outline: as §1

giant foxtail = test: Test B pre/postemergence giant foxtail; assay type: in vivo, Setaria faberii
Outline: as §1

soybean = test: Test B pre/postemergence soybean; assay type: in vivo, Glycine max
Outline: as §1

crabgrass = test: Test B pre/postemergence crabgrass; assay type: in vivo, Digitaria sanguinalis
Outline: as §1

smallflower flatsedge = test: Test B flood test smallflower flatsedge; assay type: in vivo, Cyperus difformis
Outline: as §2

bedstraw = test: Test B pre/postemergence bedstraw; assay type: in vivo, Galium aparine; settings: Postemergence, Rate 125 g/ha; scale of 0 to 10 where 0 is no effect and 10 is complete control
Outline: as §1

purple nutsedge = test: Test B pre/postemergence purple nutsedge; assay type: in vivo, Cyperus rotundus
Outline: as §1

wheat = test: Test B pre/postemergence wheat; assay type: in vivo, Triticum aestivum
Outline: as §1

rice = test: Test B flood test rice; assay type: in vivo, Oryza sativa
Outline: as §2

[1] = Postemergence, Rate 62 g/ha, scale 0 to 10, 0 is no effect, 10 is complete control
[2] = Postemergence, Rate 125 g/ha, scale of 0 to 10 where 0 is no effect and 10 is complete control
[3] = Postemergence, Rate 250 g/ha, scale of 0 to 10, 0 is no effect, 10 is complete control
[4] = Preemergence, Rate 62 g/ha, scale of 0 to 10 where 0 is no effect and 10 is complete control
[5] = Preemergence, Rate 125 g/ha, scale of 0 to 10 where 0 is no effect and 10 is complete control
[6] = Preemergence, Rate 250 g/ha, scale 0 to 10 (0 no effect, 10 complete control)
[7] = Preemergence, Rate 500 g/ha, scale of 0 to 10 where 0 is no effect and 10 is complete control
[8] = Rate 500 g/ha, Postemergence, scale 0 to 10, 0 is no effect, 10 is complete control
[9] = Rate 62 g/ha, flood test species, Pre-emergence, visual evaluation after twelve to sixteen days
[10] = Rate 125 g/ha, under heading Pre-emergence, flood test species, visual evaluation after twelve to sixteen days
[11] = Rate 250 g/ha, Pre-emergence (flood test species), scale 0 to 10, 0 is no effect, 10 is complete control
[12] = Rate 500 g/ha, Pre-emergence section of Table B, 0 to 10 scale (0 no effect, 10 complete control)

## CC[C@H](C)n1c(=O)on(C(=O)N(c2ccc(F)cc2F)C(C)C)c1=O [Compound 666]
blackgrass; [1]
  Plant response rating, Blackgrass: 6
blackgrass; [2]
  Blackgrass plant response rating: 8
blackgrass; [3]
  Blackgrass plant response rating: 8
blackgrass; [4]
  Blackgrass plant response rating: 6
blackgrass; [5]
  Blackgrass plant response rating: 8
blackgrass; [6]
  Plant response rating, Blackgrass: 9
blackgrass; [7]
  Plant response rating, Blackgrass: 10
blackgrass; [8]
  Blackgrass plant response rating: 8
Wild oat; [1]
  Plant response rating, Wild oats: 0
Wild oat; [2]
  Wild oats plant response rating: 0
Wild oat; [4]
  Wild oats plant response rating: 5
Wild oat; [5]
  Wild oats plant response rating: 6
Wild oat; [6]
  Plant response rating, Wild oats: 9
Wild oat; [7]
  Plant response rating, Wild oats: 9
Wild oat; [8]
  Wild oats plant response rating: 3
morningglory; [1]
  Plant response rating, Morningglory: 0
morningglory; [2]
  Morningglory plant response rating: 1
morningglory; [3]
  Morningglory plant response rating: 7
morningglory; [4]
  Morningglory plant response rating: 0
morningglory; [5]
  Morningglory plant response rating: 0
morningglory; [6]
  Plant response rating, Morningglory: 0
morningglory; [7]
  Plant response rating, Morningglory: 3
morningglory; [8]
  Morningglory plant response rating: 7
Sugar beet; [1]
  Plant response rating, Sugarbeets: 0
Sugar beet; [2]
  Sugarbeets plant response rating: 0
Sugar beet; [4]
  Sugarbeets plant response rating: 0
Sugar beet; [5]
  Sugarbeets plant response rating: 4
Sugar beet; [6]
  Plant response rating, Sugarbeets: 7
Sugar beet; [7]
  Plant response rating, Sugarbeets: 8
Sugar beet; [8]
  Sugarbeets plant response rating: 4
pigweed; [1]
  Plant response rating, Redroot pigweed: 0
pigweed; [2]
  Redroot pigweed plant response rating: 1
pigweed; [4]
  Redroot pigweed plant response rating: 8
pigweed; [5]
  Redroot pigweed plant response rating: 10
pigweed; [6]
  Plant response rating, Redroot pigweed: 10
pigweed; [7]
  Plant response rating, Redroot pigweed: 10
pigweed; [8]
  Redroot pigweed plant response rating: 6
Duck salad; [9]
  Plant response rating, Ducksalad (0 to 10 scale, 0 is no effect, 10 is complete control): 0
Duck salad; [10]
  Ducksalad plant response rating (0 to 10 scale, 0 is no effect, 10 is complete control): 0
Duck salad; [11]
  Ducksalad plant response rating: 0
Duck salad; [12]
  Ducksalad plant response rating: 0
bamyardgrass; [9]
  Plant response rating, Barnyardgrass (0 to 10 scale, 0 is no effect, 10 is complete control): 0
bamyardgrass; [10]
  Barnyardgrass plant response rating (0 to 10 scale, 0 is no effect, 10 is complete control): 0
bamyardgrass; [11]
  Barnyardgrass plant response rating: 0
bamyardgrass; [12]
  Barnyardgrass plant response rating: 5
corn; [1]
  Plant response rating, Corn: 0
corn; [2]
  Corn plant response rating: 0
corn; [3]
  Corn plant response rating: 0
corn; [4]
  Corn plant response rating: 0
corn; [5]
  Corn plant response rating: 4
corn; [6]
  Plant response rating, Corn: 8
corn; [7]
  Plant response rating, Corn: 10
corn; [8]
  Corn plant response rating: 0
cocklebur; [1]
  Plant response rating, Cocklebur: 0
cocklebur; [2]
  Cocklebur plant response rating: 1
cocklebur; [3]
  Cocklebur plant response rating: 4
cocklebur; [4]
  Cocklebur plant response rating: 0
cocklebur; [5]
  Cocklebur plant response rating: 0
cocklebur; [6]
  Plant response rating, Cocklebur: 0
cocklebur; [7]
  Plant response rating, Cocklebur: 0
cocklebur; [8]
  Cocklebur plant response rating: 7
Surinam grass; [1]
  Plant response rating, B. signalgrass: 0
Surinam grass; [2]
  Plant response rating, B. signalgrass: 4
Surinam grass; [3]
  B. signalgrass plant response rating: 5
Surinam grass; [4]
  B. signalgrass plant response rating: 2
Surinam grass; [5]
  B. signalgrass plant response rating: 3
Surinam grass; [6]
  Plant response rating, B. signalgrass: 7
Surinam grass; [7]
  Plant response rating, B. signalgrass: 8
Surinam grass; [8]
  B. signalgrass plant response rating: 7
rape; [1]
  Plant response rating, Rape: 0
rape; [2]
  Rape plant response rating: 0
rape; [4]
  Rape plant response rating: 0
rape; [5]
  Rape plant response rating: 8
rape; [6]
  Plant response rating, Rape: 10
rape; [7]
  Plant response rating, Rape: 10
rape; [8]
  Rape plant response rating: 4
velvetleaf; [1]
  Plant response rating, Velvetleaf: 0
velvetleaf; [2]
  Velvetleaf plant response rating: 2
velvetleaf; [4]
  Velvetleaf plant response rating: 5
velvetleaf; [5]
  Velvetleaf plant response rating: 6
velvetleaf; [6]
  Plant response rating, Velvetleaf: 7
velvetleaf; [7]
  Plant response rating, Velvetleaf: 8
velvetleaf; [8]
  Velvetleaf plant response rating: 6
Giant foxtail; [1]
  Plant response rating, Giant foxtail: 2
Giant foxtail; [2]
  Giant foxtail plant response rating: 8
Giant foxtail; [3]
  Giant foxtail plant response rating: 8
Giant foxtail; [4]
  Giant foxtail plant response rating: 9
Giant foxtail; [5]
  Giant foxtail plant response rating: 10
Giant foxtail; [6]
  Plant response rating, Giant foxtail: 10
Giant foxtail; [7]
  Plant response rating, Giant foxtail: 10
Giant foxtail; [8]
  Giant foxtail plant response rating: 9
soybean; [1]
  Plant response rating, Soybean: 4
soybean; [2]
  Soybean plant response rating: 4
soybean; [4]
  Soybean plant response rating: 0
soybean; [5]
  Soybean plant response rating: 0
soybean; [6]
  Plant response rating, Soybean: 3
soybean; [7]
  Plant response rating, Soybean: 4
crabgrass; [1]
  Plant response rating, Crabgrass: 3
crabgrass; [2]
  Crabgrass plant response rating: 9
crabgrass; [3]
  Crabgrass plant response rating: 9
crabgrass; [4]
  Crabgrass plant response rating: 7
crabgrass; [5]
  Crabgrass plant response rating: 8
crabgrass; [6]
  Plant response rating, Crabgrass: 9
crabgrass; [7]
  Plant response rating, Crabgrass: 10
crabgrass; [8]
  Crabgrass plant response rating: 9
Smallflower flatsedge; [9]
  Plant response rating, S. Flatsedge (0 to 10 scale, 0 is no effect, 10 is complete control): 0
Smallflower flatsedge; [10]
  S. Flatsedge plant response rating (0 to 10 scale, 0 is no effect, 10 is complete control): 0
Smallflower flatsedge; [11]
  S. Flatsedge plant response rating: 0
Smallflower flatsedge; [12]
  S. Flatsedge plant response rating: 0
bedstraw
  Bedstraw plant response rating: 0
Purple nutsedge; [1]
  Plant response rating, Nutsedge: 0
Purple nutsedge; [2]
  Nutsedge plant response rating: 0
Purple nutsedge; [4]
  Nutsedge plant response rating: 0
Purple nutsedge; [6]
  Plant response rating, Nutsedge: 0
Purple nutsedge; [8]
  Nutsedge plant response rating: 0
wheat; [1]
  Plant response rating, Wheat: 0
wheat; [2]
  Wheat plant response rating: 0
wheat; [4]
  Wheat plant response rating: 0
wheat; [5]
  Wheat plant response rating: 3
wheat; [6]
  Plant response rating, Wheat: 4
wheat; [7]
  Plant response rating, Wheat: 7
wheat; [8]
  Wheat plant response rating: 3
rice; [9]
  Plant response rating, Rice (0 to 10 scale, 0 is no effect, 10 is complete control): 0
rice; [10]
  Rice plant response rating (0 to 10 scale, 0 is no effect, 10 is complete control): 0
rice; [11]
  Rice plant response rating: 0
rice; [12]
  Rice plant response rating: 0

From patent publication US6737383B1, “Herbicidal oxadiazolidines” (priority 1999, dated 2004)
